Reference: patent US10752640B2, “Compounds active towards bromodomains” (NUEVOLUTION A/S, priority 2014, dated 2020)

Molecular target: BRD4 protein (Homo sapiens, UniProt O60885)
Test: FRET assay, half maximal inhibitory concentration (IC50)
Type: binding
Settings: BRD4 protein 50 nM, Biotin-H4KAc4 peptide 12.5 nM; A Further List of Classification
Experimental: The compounds were biologically evaluated by determining the half maximal inhibitory concentration (IC50) by FRET assay. The IC50 is a measure of the effectiveness of a substance in inhibiting a specific biological or biochemical function.
For IC50 determinations, dose-response curves were generated, using a top concentration of 50 μM compound in 12.5% DMSO, followed by 10-fold dilutions in 12.5% DMSO. The composition of the reaction buffer was 50 mM HEPES, pH 7.5; 100 mM NaCl, 0.05% CHAPS.
The reaction was run in a final volume of 25 μl. The BRD4 protein (16.5 μl) was added to wells of 384w white Optiplates (Perkin Elmer) (50 nM final concentration) and 1 μl of compound dilution of DMSO control. Incubation time was 30 minutes at room temperature. In the next step, 2.5 μl Biotin-H4KAc4 peptide (Millipore 13-379) was added to the wells (final concentration was 12.5 nM), and the plates were incubated for 30 minutes at room temperature. Detection was performed by addition of 5 μl of a mix of mAb GST-XL665 (Cisbio 61GSTXLB) (10 nM final concentration) and Streptavidin Cryptate (Cisbio 610SAKLB) (2.4 nM final conc.) in reaction buffer with 0.4M KF and 0.05% BSA). The plates were incubated for one hour prior to reading on an Envision reader (Perkin Elmer)
Data was analyzed using GraphPad Prism, and IC50 data was obtained using non-linear regression curve fit using log(inhibitor) vs response (variable slope). All compounds were considered active although classified (according to the half maximal inhibitory concentration (IC50) by FRET assay) as follows: […]

IC50 [nM]	Structure (SMILES)
1000 to 10000	CN1C(=O)COc2cc(NC(=O)c3cc([N+](=O)[O-])ccc3N3CCCC3)ccc21 [S77, N-(4-methyl-3-oxo-1,4-benzoxazin-7-yl)-5-nitro-2-pyrrolidin-1-yl-benzamide]
< 200	Cc1cc(O)nc2ccc(NC(=O)c3cc(CN4CCC(O)C4)ccc3N3CCCC3)cc12 (centres unmarked) [S84, N-(2-hydroxy-4-methyl-6-quinolyl)-5-[(3-hydroxypyrrolidin-1-yl)methyl]-2-pyrrolidin-1-yl-benzamide]
500 to 1000	Cc1cc(O)nc2ccc(NC(=O)c3cccc(CN4CCNCC4)c3)cc12 [S21, N-(2-hydroxy-4-methyl-6-quinolyl)-3-(piperazin-1-ylmethyl)benzamide]
1000 to 10000	CN1C(=O)CCc2cc(NC(=O)c3ccccc3N3CCOCC3)ccc21 [S1, N-(1-methyl-2-oxo-3,4-dihydroquinolin-6-yl)-2-morpholino-benzamide]
500 to 1000	Cc1cc(O)nc2ccc(NC(=O)c3cc(S(=O)(=O)N(C)C)ccc3N3C4CCC3CC(C)(O)C4)cc12 (centres unmarked) [S65, 5-(dimethylsulfamoyl)-2-(3-hydroxy-3-methyl-8-azabicyclo[3.2.1]octan-8-yl)-N-(2-hydroxy-4-methyl-6-quinolyl)benzamide]
1000 to 10000	Cc1cc(O)nc2ccc(NC(=O)c3ccccc3N3CCN(C)CC3)cc12 [S10, N-(2-hydroxy-4-methyl-6-quinolyl)-2-(4-methylpiperazin-1-yl)benzamide]
500 to 1000	CCN(CC)S(=O)(=O)c1ccc(N2CCCCC2)c(C(=O)Nc2ccc3nc(O)cc(C)c3c2)c1 [S72, 5-(diethylsulfamoyl)-N-(2-hydroxy-4-methyl-6-quinolyl)-2-(1-piperidyl)benzamide]
< 200	Cc1cc(O)nc2ccc(NC(=O)c3cc(CN4CCC(N(C)C)C4)ccc3N3CCCC3)cc12 (centres unmarked) [S83, 5-[[3-(dimethylamino)pyrrolidin-1-yl]methyl]-N-(2-hydroxy-4-methyl-6-quinolyl)-2-pyrrolidin-1-yl-benzamide]
< 200	Cc1cc(O)nc2ccc(NC(=O)c3cc(S(=O)(=O)N(C)C)ccc3N3CCC(NC(N)=O)C3)cc12 (centres unmarked) [S48, 5-(dimethylsulfamoyl)-N-(2-hydroxy-4-methyl-6-quinolyl)-2-(3-ureidopyrrolidin-1-yl)benzamide]
< 200	Cc1cc(O)nc2ccc(NC(=O)c3cc(S(=O)(=O)N(C)C)ccc3N3CCC(c4ccccc4)C3)cc12 (centres unmarked) [S51, 5-(dimethylsulfamoyl)-N-(2-hydroxy-4-methyl-6-quinolyl)-2-(3-phenylpyrrolidin-1-yl)benzamide]

Same assay, conditions: BRD4 protein 50 nM, Biotin-H4KAc4 peptide 12.5 nM; List of Classification

IC50 [nM]	Structure (SMILES)
< 200	Cc1cc(O)nc2ccc(NC(=O)c3cc(-c4cnn(C)c4)cnc3N3CCOCC3)cc12 [Compound-175, N-(2-hydroxy-4-methylquinolin-6-yl)-5-(1-methyl-1H-pyrazol-4-yl)-2-morpholinonicotinamide]
< 200	Cc1cc(O)nc2ccc(NC(=O)c3cc(C(C)O)ccc3N3CCCC3c3ccccn3)cc12 (centres unmarked) [Compound-206, N-(2-hydroxy-4-methylquinolin-6-yl)-5-(1-hydroxyethyl)-2-(2-(pyridin-2-yl)pyrrolidin-1-yl)benzamide]
< 200	Cc1cc(O)nc2ccc(NC(=O)c3cc(S(=O)(=O)N4CCOCC4)ccc3N3CCC(O)C3)cc12 (centres unmarked) [Compound-110, N-(2-hydroxy-4-methyl-6-quinolyl)-2-(3-hydroxypyrrolidin-1-yl)-5-morpholino-sulfonyl-benzamide]
500 to 1000	Cc1cc(O)nc2ccc(NC(=O)c3cc(-c4ccoc4)cnc3N3CCOCC3)cc12 [Compound-174, 5-(furan-3-yl)-N-(2-hydroxy-4-methylquinolin-6-yl)-2-morpholinonicotinamide]
< 200	COc1cc(NC(=O)c2cc(-c3cnn(C)c3)cnc2N2CCOCC2)cc2c(C)cc(O)nc12 [Compound-169, N-(2-hydroxy-8-methoxy-4-methylquinolin-6-yl)-5-(1-methyl-1H-pyrazol-4-yl)-2-morpholinonicotinamide]
< 200	Cc1cc(O)nc2ccc(NC(=O)c3cc(COC(C)C)ccc3N3CCCC3)cc12 [Compound-50, N-(2-hydroxy-4-methylquinolin-6-yl)-5-(isopropoxymethyl)-2-(pyrrolidin-1-yl) benzamide]
1000 to 10000	Cc1cc(O)nc2ccc(NC(=O)c3nc(CN)ccc3N3CCCC3)cc12 [Compound-36, 6-(aminomethyl)-N-(2-hydroxy-4-methylqunolin-6-yl)-3-(pyrrolidin-1-yl)picolinamide]
< 200	Cc1cc2nc(O)cc(C)c2cc1NC(=O)c1cc(-c2cnn(C)c2)ccc1N1CCOCC1 [Compound-154, N-(2-hydroxy-4,7-dimethyl-6-quinolyl)-5-(1-methylpyrazol-4-yl)-2-morpholino-benzamide]
200 to 500	Cc1cc(O)nc2ccc(NC(=O)c3ccc(C(F)(F)F)nc3N3CCOCC3)cc12 [Compound-135, N-(2-hydroxy-4-methyl-6-quinolyl)-2-morpholino-6-(trifluoromethyl)pyridine-3-carboxamide]
< 200	Cc1cc2nc(O)cc(C)c2cc1NC(=O)c1cc(-c2c(C)noc2C)cnc1N1CCOCC1 [Compound-188, 5-(3,5-dimethylisoxazol-4-yl)-N-(2-hydroxy-4,7-dimethylquinolin-6-yl)-2-morpholinonicotinamide]
> 10000	Cc1cc(=O)[nH]c2ccc(NC(=O)c3cc(S(=O)(=O)N4CCOCC4)ccc3N3CCCC3)nc12 [Compound-94, N-(8-methyl-6-oxo-5H-1,5-naphthyridin-2-yl)-5-morpholinosulfonyl-2-pyrrolidin-1-yl-benzamide]
200 to 500	Cc1cc(O)nc2ccc(NC(=O)c3cc(NCC(N)=O)cnc3N3CCCC3)cc12 [Compound-25, 5-[(2-amino-2-oxo-ethyl)amino]-N-(2-hydroxy-4-methyl-6-quinolyl)-2-pyrrolidin-1-yl-pyridine-3-carboxamide]
< 200	Cc1cc(O)nc2ccc(NC(=O)c3cc(S(=O)(=O)N4CCN(C)CC4)ccc3N3CCOCC3)cc12 [Compound-5, N-(2-hydroxy-4-methylquinolin-6-yl)-5-(4-methylpiperazin-1-ylsulfonyl)-2-morpholino benzamide]
< 200	Cc1cc(O)nc2ccc(NC(=O)c3cc(CN4CCOCC4)cnc3N3CCC(O)C3)cc12 (centres unmarked) [Compound-89, N-(2-hydroxy-4-methyl-6-quinolyl)-2-(3-hydroxypyrrolidin-1-yl)-5-(morpholinomethyl)pyridine-3-carboxamide]
500 to 1000	Cc1cc(O)nc2ccc(NC(=O)c3nc(C(C)O)ccc3N3CCCC3)cc12 (centres unmarked) [Compound-39]
< 200	Cc1cc(O)nc2ccc(NC(=O)c3cccnc3N3CCOCC3CO)cc12 (centres unmarked) [Compound-145, 2-[3-(hydroxymethyl)morpholin-4-yl]-N-(2-hydroxy-4-methyl-6-quinolyl)pyridine-3-carboxamide]
> 10000	Cc1cc(O)nc2ccc(NS(=O)(=O)c3cc(S(N)(=O)=O)ccc3N3CCOCC3)cc12 [Compound-80, N3-(2-hydroxy-4-methyl-6-quinolyl)-4-morpholino-benzene-1,3-disulfonamide]
1000 to 10000	CC(C)c1cc(O)nc2ccc(NC(=O)c3cccnc3N3CCOCC3)cc12 [Compound-129]
< 200	CC(=O)c1cc(C(=O)Nc2ccc3nc(O)cc(C)c3c2)c(N2CCCC2CN(C)C)cn1 (centres unmarked) [Compound-212, 2-acetyl-5-(2-((dimethylamino)methyl)pyrrolidin-1-yl)-N-(2-hydroxy-4-methylquinolin-6-yl)isonicotinamide]
< 200	Cc1cc(O)nc2ccc(NC(=O)c3cc4[nH]cc(CN(C)C)c4cc3N3CCCC3)cc12 [Compound-85, 3-(dimethylaminomethyl)-N-(2-hydroxy-4-methyl-6-quinolyl)-5-pyrrolidin-1-yl-1H-indole-6-carboxamide]
< 200	Cc1cc(=O)[nH]c2ccc(NC(=O)c3cc(S(=O)(=O)N(C)C)ccc3N3CC[C@H](F)C3)cc12 [Compound-173, (S)-5-(N,N-dimethylsulfamoyl)-2-(3-fluoropyrrolidin-1-yl)-N-(4-methyl-2-oxo-1,2-dihydroquinolin-6-yl)benzamide]
200 to 500	Cc1cc(O)nc2ccc(NC(=O)c3cc(CO)ccc3N3CCCC3)cc12 [Compound-14, N-(2-hydroxy-4-methylquinlin-6-yl)-5-(hydroxymethyl)-2-(pyrrolidin-1-yl) benzamide]
< 200	COC1CCN(c2ccc(S(=O)(=O)N3CCOCC3)cc2C(=O)Nc2ccc3nc(O)cc(C)c3c2)C1 (centres unmarked) [Compound-111, N-(2-hydroxy-4-methyl-6-quinolyl)-2-(3-methoxypyrrolidin-1-yl)-5-morpholino-sulfonyl-benzamide]
< 200	Cc1cc(O)nc2ccc(NC(=O)c3ccncc3N3CCCC3)cc12 [Compound-95, N-(2-hydroxy-4-methyl-6-quinolyl)-3-pyrrolidin-1-yl-pyridine-4-carboxamide]
< 200	Cc1cc(O)nc2ccc(NC(=O)c3cc(S(=O)(=O)N4CC(N(C)C)C4)ccc3N3CCOCC3)cc12 [Compound-7, 5-[3-(dimethylamino)azetidin-1-yl]sulfonyl-N-(2-hydroxy-4-methyl-6-quinolyl)-2-morpholino-benzamide]
